Laboratory results: ChEMBL document CHEMBL1136974, “Selective inhibitors of tumor progression loci-2 (Tpl2) kinase with potent inhibition of TNF-alpha production in human whole blood” (Bioorg Med Chem Lett, 2009)

Key:
[1] = Selectivity of Tpl2 to PKA
[2] = Selectivity of Tpl2 to Src
[3] = Clearance in rat; format: ADME, organism-based; details: in vivo
[4] = Selectivity of Tpl2 to PKC
[5] = Selectivity of Tpl2 to CAMK2
[6] = Selectivity of Tpl2 to MK2
[7] = Selectivity of Tpl2 to p38
[8] = Membrane permeability by PAMPA assay; format: ADME; details: read-out: permeability
[9] = Selectivity of Tpl2 to EGFR
[10] = Cmax in rat at 100 mg/kg, po; format: ADME, organism-based; design: dose 100 mg/kg, route oral; details: in vivo
[11] = AUC in rat at 100 mg/kg, po; format: ADME, organism-based; design: dose 100 mg/kg, route oral; details: plasma

Row | Compound | fold change (FC) [1] | fold change (FC) [2] | clearance [3] | fold change (FC) [4] | fold change (FC) [5] | fold change (FC) [6] | fold change (FC) [7] | Papp [8] | fold change (FC) [9] | Cmax [10] | AUC [11]
1 | N#Cc1cnc2c(Cl)cc(NCc3cn(Cc4ccncc4)nn3)cc2c1Nc1ccc(F)c(Cl)c1 | 10 | 10 | 88 mL/min/kg | 10 | 10 | 10 | 10 | – | – | – | –
2 | N#Cc1cnc2c(Cl)cc(NCc3cn(CCC4CCCN4)nn3)cc2c1Nc1ccc(F)c(Cl)c1 (stereo not drawn) | 10 | 10 | – | 10 | 10 | 10 | 10 | 0.57 ×10⁻⁶ cm/s | – | – | –
3 | N#Cc1cnc2c(Cl)cc(NCc3cn(CCN4CCCCC4)nn3)cc2c1Nc1ccc(F)c(Cl)c1 | 10 | 10 | – | 10 | 10 | 10 | 10 | – | – | – | –
4 | CC(C)(C)n1cc(CNc2cc(Br)c3ncc(C#N)c(Nc4ccc(F)c(Cl)c4)c3c2)nn1 | 10 | 10 | – | 10 | 10 | 10 | 10 | – | – | – | –
5 | N#Cc1cnc2c(Cl)cc(NCc3cn(CCN)nn3)cc2c1Nc1ccc(F)c(Cl)c1 | 10 | 10 | – | 10 | 10 | 10 | 10 | – | – | – | –
6 | N#Cc1cnc2c(Cl)cc(NCc3cn(C4CCN(C5CCC5)CC4)nn3)cc2c1Nc1ccc(F)c(Cl)c1 | 10 | 10 | – | 10 | 10 | 10 | 10 | 0.43 ×10⁻⁶ cm/s | – | – | –
7 | CN1CCCC1CCn1cc(CNc2cc(Cl)c3ncc(C#N)c(Nc4ccc(F)c(Cl)c4)c3c2)nn1 (stereo not drawn) | 10 | 10 | – | 10 | 10 | 10 | 10 | – | – | – | –
8 | CCCN1CCC(n2cc(CNc3cc(Cl)c4ncc(C#N)c(Nc5ccc(F)c(Cl)c5)c4c3)nn2)CC1 | 10 | 10 | – | 10 | 10 | 10 | 10 | 0.48 ×10⁻⁶ cm/s | – | – | –
9 | N#Cc1cnc2c(Cl)cc(NCc3c[nH]nn3)cc2c1Nc1ccc(F)c(Cl)c1 | 10 | 10 | – | 10 | 10 | 10 | 10 | – | 10 | – | –
10 | N#Cc1cnc2c(Cl)cc(NCc3cn(CCCN)nn3)cc2c1Nc1ccc(F)c(Cl)c1 | 10 | 10 | – | 10 | 10 | 10 | 10 | – | – | – | –
11 | N#Cc1cnc2c(Br)cc(NCc3c[nH]nn3)cc2c1Nc1ccc(F)c(Cl)c1 | 10 | 10 | – | 10 | – | 10 | 10 | – | – | – | –
12 | N#Cc1cnc2c(Cl)cc(NCc3cn(Cc4ccccc4)nn3)cc2c1Nc1ccc(F)c(Cl)c1 | 10 | 10 | – | 10 | 10 | 10 | 10 | – | – | – | –
13 | N#Cc1cnc2c(Br)cc(NCc3cn(-c4ccccc4)nn3)cc2c1Nc1ccc(F)c(Cl)c1 | 10 | 10 | – | 10 | 10 | 10 | 10 | 1.2 ×10⁻⁶ cm/s | – | – | –
14 | CC(C)(C)n1cc(CNc2cc(Cl)c3ncc(C#N)c(Nc4ccc(F)c(Cl)c4)c3c2)nn1 | 10 | 10 | – | 10 | – | 10 | 10 | 0.1 ×10⁻⁶ cm/s | – | – | –
15 | N#Cc1cnc2c(Cl)cc(NCc3cn(-c4cccnc4)nn3)cc2c1Nc1ccc(F)c(Cl)c1 | 10 | 10 | – | 10 | 10 | 10 | 10 | – | – | – | –
16 | CCN1CCC(CCn2cc(CNc3cc(Cl)c4ncc(C#N)c(Nc5ccc(F)c(Cl)c5)c4c3)nn2)CC1 | 10 | 10 | – | 10 | 10 | 10 | 10 | – | – | – | –

Row | Compound | fold change (FC) [1] | fold change (FC) [2] | clearance [3] | fold change (FC) [4] | fold change (FC) [5] | fold change (FC) [6] | fold change (FC) [7] | Papp [8] | fold change (FC) [9] | Cmax [10] | AUC [11]
17 | N#Cc1cnc2c(Br)cc(NCc3cn(CCC4CCCN4)nn3)cc2c1Nc1ccc(F)c(Cl)c1 (stereo not drawn) | 10 | 10 | – | 10 | 10 | 10 | 10 | 0.72 ×10⁻⁶ cm/s | – | – | –
18 | CN(C)CCn1cc(CNc2cc(Cl)c3ncc(C#N)c(Nc4ccc(F)c(Cl)c4)c3c2)nn1 | 10 | 10 | – | 10 | 10 | 10 | 10 | – | – | – | –
19 | N#Cc1cnc2c(Cl)cc(NCc3cn(CC(=O)O)nn3)cc2c1Nc1ccc(F)c(Cl)c1 | 10 | 10 | – | 10 | 10 | 10 | 10 | 0.04 ×10⁻⁶ cm/s | – | – | –
20 | CC(C)N1CCC(n2cc(CNc3cc(Cl)c4ncc(C#N)c(Nc5ccc(F)c(Cl)c5)c4c3)nn2)CC1 | 10 | 10 | – | 10 | 10 | 10 | 10 | – | – | – | –
21 | N#Cc1cnc2c(Cl)cc(NCc3cn(Cc4ccccn4)nn3)cc2c1Nc1ccc(F)c(Cl)c1 | 10 | 10 | – | 10 | 10 | 10 | 10 | – | – | – | –
22 | CCN1CCC(n2cc(CNc3cc(Cl)c4ncc(C#N)c(Nc5ccc(F)c(Cl)c5)c4c3)nn2)CC1 | 10 | 10 | – | 10 | 10 | 10 | 10 | 0.36 ×10⁻⁶ cm/s | 6880 | 517 ng/mL | 4840 ng·h/mL
23 | N#Cc1cnc2c(Cl)cc(NCc3cn(Cc4cccnc4)nn3)cc2c1Nc1ccc(F)c(Cl)c1 | 10 | 10 | – | 10 | 10 | 10 | 10 | 0.18 ×10⁻⁶ cm/s | – | – | –
24 | N#Cc1cnc2c(Br)cc(NCc3cn(Cc4cccnc4)nn3)cc2c1Nc1ccc(F)c(Cl)c1 | 10 | 10 | – | 10 | 10 | 10 | 10 | 0.13 ×10⁻⁶ cm/s | – | – | –
25 | N#Cc1cnc2c(Cl)cc(NCc3cn(CCN4CCOCC4)nn3)cc2c1Nc1ccc(F)c(Cl)c1 | 10 | 10 | – | 10 | 10 | 10 | 10 | – | – | – | –
26 | N#Cc1cnc2c(Cl)cc(NCc3cn(C4CCNCC4)nn3)cc2c1Nc1ccc(F)c(Cl)c1 | 10 | 10 | – | 10 | 10 | 10 | 10 | 0.03 ×10⁻⁶ cm/s | – | – | –
27 | N#Cc1cnc2c(Br)cc(NCc3cn(CC(=O)O)nn3)cc2c1Nc1ccc(F)c(Cl)c1 | 10 | 10 | – | 10 | 10 | 10 | 10 | 1.8 ×10⁻⁶ cm/s | – | – | –
28 | N#Cc1cnc2c(Cl)cc(NCc3cn(-c4ccccc4)nn3)cc2c1Nc1ccc(F)c(Cl)c1 | 10 | 10 | – | 10 | 10 | 10 | 10 | – | – | – | –
29 | N#Cc1cnc2c(Cl)cc(NCc3cn(-c4ccncc4)nn3)cc2c1Nc1ccc(F)c(Cl)c1 | 10 | 10 | 28 mL/min/kg | 10 | 10 | 10 | 10 | – | – | – | –
30 | CN1CCC(n2cc(CNc3cc(Cl)c4ncc(C#N)c(Nc5ccc(F)c(Cl)c5)c4c3)nn2)CC1 | 10 | 10 | – | 10 | 10 | 10 | 10 | 0.39 ×10⁻⁶ cm/s | – | – | –
31 | N#Cc1cnc2c(Cl)cc(NCc3cn(CCN4CCCCCC4)nn3)cc2c1Nc1ccc(F)c(Cl)c1 | 10 | 10 | – | 10 | 10 | 10 | 10 | – | – | – | –
